{
  "source": "patent US10787452B2",
  "about": "(Vertex Pharmaceuticals Incorporated, priority 2012, dated 2020)",
  "system": "HCT116 colorectal cancer cells",
  "assay": "Cisplatin sensitization assay (96 h cell viability MTS);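 note: compound concentration needed to lower the Cisplatin-alone IC50 by a set fold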",
  "type": "cell-based",
  "settings": "96 h MTS, compound plus Cisplatin",
  "in_short": "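Viability was measured by MTS after 96 h co-exposure of HCT116 colorectal cells to a full-matrix dilution grid of compound and cisplatin (2-fold steps, highest final concentration 10 μM, added together). Plates were kept at 37 °C in 5% CO2, and the MTS reagent was incubated for 1 h before reading.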",
  "data": [
    {"smiles": "Nc1nn2cc(Cl)cnc2c1C(=O)Nc1cnccc1N1CCC(N2CCCC2)CC1", "note": "[I-N-105, 2-amino-6-chloro-N-(4-(4-(pyrrolidin-1-yl)piperidin-1-yl)pyridin-3-yl)pyrazolo[1,5-a]pyrimidine-3-carboxamide]", "values": [
      {"measurement": "Cisplatin Sensitization Assay", "result": "+++ (Compounds with a Cisplatin sensitization value of <0.02 μM are marked with “+++.”)"}
    ]},
    {"smiles": "CN(C)C1CCN(C2CCN(c3ccncc3NC(=O)c3c(N)nn4cc(Cl)cnc34)CC2)C1", "note": "(stereo not shown) [I-N-106, 2-amino-6-chloro-N-(4-(4-(3-(dimethylamino)pyrrolidin-1-yl)piperidin-1-yl)pyridin-3-yl)pyrazolo[1,5-a]pyrimidine-3-carboxamide]", "values": [
      {"measurement": "Cisplatin Sensitization Assay", "result": "+++ (Compounds with a Cisplatin sensitization value of <0.02 μM are marked with “+++.”)"}
    ]},
    {"smiles": "COC1CN(C2CCN(c3ccncc3NC(=O)c3c(N)nn4cc(Cl)cnc34)CC2)C1", "note": "[I-N-107, 2-amino-6-chloro-N-(4-(4-(3-methoxyazetidin-1-yl)piperidin-1-yl)pyridin-3-yl)pyrazolo[1,5-a]pyrimidine-3-carboxamide]", "values": [
      {"measurement": "Cisplatin Sensitization Assay", "result": "+++ (Compounds with a Cisplatin sensitization value of <0.02 μM are marked with “+++.”)"}
    ]},
    {"smiles": "Nc1nn2cc(Cl)cnc2c1C(=O)Nc1cnccc1N1CCC(N2CC(F)(F)C2)CC1", "note": "[I-N-108, 2-amino-6-chloro-N-(4-(4-(3,3-difluoroazetidin-1-yl)piperidin-1-yl)pyridin-3-yl)pyrazolo[1,5-a]pyrimidine-3-carboxamide]", "values": [
      {"measurement": "Cisplatin Sensitization Assay", "result": "+++ (Compounds with a Cisplatin sensitization value of <0.02 μM are marked with “+++.”)"}
    ]},
    {"smiles": "Nc1nn2cc(Cl)cnc2c1C(=O)Nc1cnccc1N1CCC(N2CCC23COC3)CC1", "note": "[I-N-109, N-(4-(4-(6-oxa-1-azaspiro[3.3]heptan-1-yl)piperidin-1-yl)pyridin-3-yl)-2-amino-6-chloropyrazolo[1,5-a]pyrimidine-3-carboxamide]", "values": [
      {"measurement": "Cisplatin Sensitization Assay", "result": "+++ (Compounds with a Cisplatin sensitization value of <0.02 μM are marked with “+++.”)"}
    ]},
    {"smiles": "CN1CCN(c2c(NC(=O)c3c(N)nn4cc(F)cnc34)cncc2C(F)F)CC1", "note": "[I-N-111, 2-amino-N-(5-(difluoromethyl)-4-(4-methylpiperazin-1-yl)pyridin-3-yl)-6-fluoropyrazolo[1,5-a]pyrimidine-3-carboxamide]", "values": [
      {"measurement": "Cisplatin Sensitization Assay", "result": "++ (Compounds with a Cisplatin sensitization value >0.02 μM but <0.2 μM are marked with “++.”)"}
    ]},
    {"smiles": "CN1CCN(c2c(C#N)cncc2NC(=O)c2c(N)nn3cc(F)cnc23)CC1", "note": "[I-N-113, 2-amino-N-(5-cyano-4-(4-methylpiperazin-1-yl)pyridin-3-yl)-6-fluoropyrazolo[1,5-a]pyrimidine-3-carboxamide]", "values": [
      {"measurement": "Cisplatin Sensitization Assay", "result": "+ (Compounds with a Cisplatin sensitization value >0.2 μM but <5 μM are marked with “+.”)"}
    ]},
    {"smiles": "Nc1nn2cc(F)cnc2c1C(=O)Nc1cnccc1N1CCN2CCOC[C@@H]2C1", "note": "[I-N-115, (S)-2-amino-6-fluoro-N-(4-(hexahydropyrazino[2,1-c][1,4]oxazin-8(1H)-yl)pyridin-3-yl)pyrazolo[1,5-a]pyrimidine-3-carboxamide]", "values": [
      {"measurement": "Cisplatin Sensitization Assay", "result": "+++ (Compounds with a Cisplatin sensitization value of <0.02 μM are marked with “+++.”)"}
    ]},
    {"smiles": "Nc1nn2cc(F)cnc2c1C(=O)Nc1cnccc1N1CCN2CCOC[C@H]2C1", "note": "[I-N-116, (R)-2-amino-6-fluoro-N-(4-(hexahydropyrazino[2,1-c][1,4]oxazin-8(1H)-yl)pyridin-3-yl)pyrazolo[1,5-a]pyrimidine-3-carboxamide]", "values": [
      {"measurement": "Cisplatin Sensitization Assay", "result": "++ (Compounds with a Cisplatin sensitization value >0.02 μM but <0.2 μM are marked with “++.”)"}
    ]},
    {"smiles": "Nc1nn2cc(Cl)cnc2c1C(=O)Nc1cncc(F)c1N1CCN(C2COC2)CC1", "note": "[I-N-117, 2-amino-6-chloro-N-(5-fluoro-4-(4-(oxetan-3-yl)piperazin-1-yl)pyridin-3-yl)pyrazolo[1,5-a]pyrimidine-3-carboxamide]", "values": [
      {"measurement": "Cisplatin Sensitization Assay", "result": "+++ (Compounds with a Cisplatin sensitization value of <0.02 μM are marked with “+++.”)"}
    ]},
    {"smiles": "Nc1nn2cc(F)cnc2c1C(=O)Nc1cncc(F)c1N1CCNCC1", "note": "[I-N-118, 2-amino-6-fluoro-N-(5-fluoro-4-(piperazin-1-yl)pyridin-3-yl)pyrazolo[1,5-a]pyrimidine-3-carboxamide]", "values": [
      {"measurement": "Cisplatin Sensitization Assay", "result": "+++ (Compounds with a Cisplatin sensitization value of <0.02 μM are marked with “+++.”)"}
    ]},
    {"smiles": "Nc1nn2cc(F)cnc2c1C(=O)Nc1cncc(C2CC2)c1N1CCN([C@@H]2CCOC2)CC1", "note": "[I-N-119, (R)-2-amino-N-(5-cyclopropyl-4-(4-(tetrahydrofuran-3-yl)piperazin-1-yl)pyridin-3-yl)-6-fluoropyrazolo[1,5-a]pyrimidine-3-carboxamide]", "values": [
      {"measurement": "Cisplatin Sensitization Assay", "result": "++ (Compounds with a Cisplatin sensitization value >0.02 μM but <0.2 μM are marked with “++.”)"}
    ]},
    {"smiles": "Nc1nn2cc(F)cnc2c1C(=O)Nc1cncc(C2CC2)c1N1CCN([C@H]2CCOC2)CC1", "note": "[I-N-120, (S)-2-amino-N-(5-cyclopropyl-4-(4-(tetrahydrofuran-3-yl)piperazin-1-yl)pyridin-3-yl)-6-fluoropyrazolo[1,5-a]pyrimidine-3-carboxamide]", "values": [
      {"measurement": "Cisplatin Sensitization Assay", "result": "+++ (Compounds with a Cisplatin sensitization value of <0.02 μM are marked with “+++.”)"}
    ]},
    {"smiles": "Nc1nn2cc(F)cnc2c1C(=O)Nc1cncc(F)c1N1CCN(C2CCOCC2)CC1", "note": "[I-N-121, 2-amino-6-fluoro-N-(5-fluoro-4-(4-(tetrahydro-2H-pyran-4-yl)piperazin-1-yl)pyridin-3-yl)pyrazolo[1,5-a]pyrimidine-3-carboxamide]", "values": [
      {"measurement": "Cisplatin Sensitization Assay", "result": "+++ (Compounds with a Cisplatin sensitization value of <0.02 μM are marked with “+++.”)"}
    ]},
    {"smiles": "Nc1nn2cc(F)cnc2c1C(=O)Nc1cncc(F)c1N1CCN(C2CCOC2)CC1", "note": "(stereo not shown) [I-N-122, 2-amino-6-fluoro-N-(5-fluoro-4-(4-(tetrahydrofuran-3-yl)piperazin-1-yl)pyridin-3-yl)pyrazolo[1,5-a]pyrimidine-3-carboxamide]", "values": [
      {"measurement": "Cisplatin Sensitization Assay", "result": "++ (Compounds with a Cisplatin sensitization value >0.02 μM but <0.2 μM are marked with “++.”)"}
    ]},
    {"smiles": "Cc1cncc(NC(=O)c2c(N)nn3cc(F)cnc23)c1N1CCN(C2CCOCC2)CC1", "note": "[I-N-123, 2-amino-6-fluoro-N-(5-methyl-4-(4-(tetrahydro-2H-pyran-4-yl)piperazin-1-yl)pyridin-3-yl)pyrazolo[1,5-a]pyrimidine-3-carboxamide]", "values": [
      {"measurement": "Cisplatin Sensitization Assay", "result": "++ (Compounds with a Cisplatin sensitization value >0.02 μM but <0.2 μM are marked with “++.”)"}
    ]},
    {"smiles": "Nc1nn2cc(F)cnc2c1C(=O)Nc1cncc(Cl)c1N1CCN(C2CCOC2)CC1", "note": "(stereo not shown) [I-N-124, 2-amino-N-(5-chloro-4-(4-(tetrahydrofuran-3-yl)piperazin-1-yl)pyridin-3-yl)-6-fluoropyrazolo[1,5-a]pyrimidine-3-carboxamide]", "values": [
      {"measurement": "Cisplatin Sensitization Assay", "result": "+++ (Compounds with a Cisplatin sensitization value of <0.02 μM are marked with “+++.”)"}
    ]},
    {"smiles": "Nc1nn2cc(F)cnc2c1C(=O)Nc1cncc(F)c1N1CCN([C@H]2CCOC2)CC1", "note": "[I-N-125, (S)-2-amino-6-fluoro-N-(5-fluoro-4-(4-(tetrahydrofuran-3-yl)piperazin-1-yl)pyridin-3-yl)pyrazolo[1,5-a]pyrimidine-3-carboxamide]", "values": [
      {"measurement": "Cisplatin Sensitization Assay", "result": "+++ (Compounds with a Cisplatin sensitization value of <0.02 μM are marked with “+++.”)"}
    ]},
    {"smiles": "Nc1nn2cc(F)cnc2c1C(=O)Nc1cncc(Cl)c1N1CCNCC1", "note": "[I-N-126, 2-amino-N-(5-chloro-4-(piperazin-1-yl)pyridin-3-yl)-6-fluoropyrazolo[1,5-a]pyrimidine-3-carboxamide]", "values": [
      {"measurement": "Cisplatin Sensitization Assay", "result": "+++ (Compounds with a Cisplatin sensitization value of <0.02 μM are marked with “+++.”)"}
    ]}
  ]
}
